Where “and” joins values, the source holds several entries; their conditions need not be identical. Identical values can stand only once. Toxic doses and inconclusive results are not listed. No stated cut-off is given here; in the data, active means T/C of 150% or more; inactive means T/C below 125%.
System: L1210 leukemia ip in BDF1 mice, survival T/C
Assay: NCI In Vivo Anticancer Drug Screen. Data for tumor model L1210 Leukemia (intraperitoneal) in B6D2F1 (BDF1) mice
Conditions: endpoint: mean survival time, higher = longer survival
Method in brief: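 In this screen, tumor-bearing mice given compound are compared to those given vehicle, and their survival values are reported as a treated-to-control quotient.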

[1] = dose: 25.0 mg/kg/injection, schedule: Q01DX009 (ip), vehicle: saline with Tween-80
[2] = dose: 25.0 mg/kg/injection, schedule: Q04DX003 (ip), vehicle: saline with Tween-80
[3] = dose: 50.0 mg/kg/injection, schedule: Q01DX009 (ip), vehicle: saline with Tween-80
[4] = dose: 50.0 mg/kg/injection, schedule: Q04DX003 (ip), vehicle: saline with Tween-80
[5] = dose: 100.0 mg/kg/injection, schedule: Q01DX009 (ip), vehicle: saline with Tween-80
[6] = dose: 100.0 mg/kg/injection, schedule: Q04DX003 (ip), vehicle: saline with Tween-80
[7] = dose: 100.0 mg/kg/injection, schedule: Q01DX009 (ip), vehicle: Klucel (hydroxypropylcellulose) (HPC)
[8] = dose: 200.0 mg/kg/injection, schedule: Q01DX009 (ip), vehicle: Klucel (hydroxypropylcellulose) (HPC)
[9] = dose: 400.0 mg/kg/injection, schedule: Q01DX009 (ip), vehicle: Klucel (hydroxypropylcellulose) (HPC)
[10] = dose: 100.0 mg/kg/injection, schedule: Q04DX003 (ip), vehicle: Klucel (hydroxypropylcellulose) (HPC)
[11] = dose: 200.0 mg/kg/injection, schedule: Q04DX003 (ip), vehicle: Klucel (hydroxypropylcellulose) (HPC)
[12] = dose: 400.0 mg/kg/injection, schedule: Q04DX003 (ip), vehicle: Klucel (hydroxypropylcellulose) (HPC)
[13] = dose: 100.0 mg/kg/injection, schedule: Q01DX001 (ip), vehicle: carboxymethylcellulose (CMC)
[14] = dose: 200.0 mg/kg/injection, schedule: Q01DX001 (ip), vehicle: carboxymethylcellulose (CMC)
[15] = dose: 25.0 mg/kg/injection, schedule: Q04DX002 (ip), vehicle: Klucel (hydroxypropylcellulose) (HPC)
[16] = dose: 50.0 mg/kg/injection, schedule: Q04DX002 (ip), vehicle: Klucel (hydroxypropylcellulose) (HPC)
[17] = dose: 100.0 mg/kg/injection, schedule: Q04DX002 (ip), vehicle: Klucel (hydroxypropylcellulose) (HPC)
[18] = dose: 100.0 mg/kg/injection, schedule: Q04DX002 (ip), vehicle: saline
[19] = dose: 200.0 mg/kg/injection, schedule: Q04DX002 (ip), vehicle: saline
[20] = dose: 400.0 mg/kg/injection, schedule: Q04DX002 (ip), vehicle: saline
[21] = dose: 400.0 mg/kg/injection, schedule: Q01DX001 (ip), vehicle: carboxymethylcellulose (CMC)

Measured: T/C

CC(=O)Oc1cc(C)c(OC(C)=O)c(C)c1C
inactive: [1] 108 % of control | [2] 92 % of control | [3] 103 % of control | [4] 94 % of control | [5] 96 % of control | [6] 100 % of control and 103 % of control

CCCOC(CN)C(Cl)(Cl)Cl (stereo not drawn)
inactive: dose: 50.0 mg/kg/injection, schedule: Q01DX009 (ip), vehicle: saline 98 % of control | dose: 100.0 mg/kg/injection, schedule: Q01DX009 (ip), vehicle: saline 96 % of control | dose: 100.0 mg/kg/injection, schedule: Q04DX003 (ip), vehicle: saline 97 % of control | dose: 200.0 mg/kg/injection, schedule: Q01DX009 (ip), vehicle: saline 96 % of control | dose: 200.0 mg/kg/injection, schedule: Q04DX003 (ip), vehicle: saline 92 % of control

C#CC1(OCC(O)CO)CCCCC1 (stereo not drawn)
inactive: dose: 25.0 mg/kg/injection, schedule: Q01DX009 (ip), vehicle: water 115 % of control | dose: 50.0 mg/kg/injection, schedule: Q01DX009 (ip), vehicle: water 110 % of control | dose: 100.0 mg/kg/injection, schedule: Q01DX009 (ip), vehicle: water 100 % of control | dose: 200.0 mg/kg/injection, schedule: Q01DX009 (ip), vehicle: water 97 % of control

COc1ccc(C=O)cc1OC
inactive: [7] 101 % of control | [8] 102 % of control | [9] 96 % of control

c1ccc2c(CCCc3nccc4ccccc34)nccc2c1
inactive: dose: 100.0 mg/kg/injection, schedule: Q01DX001 (ip), vehicle: Klucel (hydroxypropylcellulose) (HPC) 102 % of control | [10] 108 % of control | dose: 200.0 mg/kg/injection, schedule: Q01DX001 (ip), vehicle: Klucel (hydroxypropylcellulose) (HPC) 104 % of control | [11] 108 % of control | dose: 400.0 mg/kg/injection, schedule: Q01DX001 (ip), vehicle: Klucel (hydroxypropylcellulose) (HPC) 108 % of control | [12] 102 % of control

CCCCN=Cc1ccc(Cl)cc1
inactive: dose: 100.0 mg/kg/injection, schedule: Q04DX002 (ip), vehicle: saline with Tween-80 90 % of control | dose: 200.0 mg/kg/injection, schedule: Q04DX002 (ip), vehicle: saline with Tween-80 87 % of control | dose: 400.0 mg/kg/injection, schedule: Q04DX002 (ip), vehicle: saline with Tween-80 100 % of control

NNc1ccc2cccc(O)c2n1
inactive: [13] 90 % of control | [14] 93 % of control

CC1(C)CC(N=Cc2ccccc2O)CC(C)(C)N1O.CC1(C)CC(N=Cc2ccccc2O)CC(C)(C)N1O.[Zn]
inactive: [15] 91 % of control | [16] 91 % of control | [17] 94 % of control

CC/[N+]([O-])=C/c1ncc([N+](=O)[O-])n1C
inactive: [18] 114 % of control | [19] 118 % of control | [20] 114 % of control

O=[N+]([O-])c1ccc2cnn(CN3CCCCC3)c2c1
inactive: [13] 98 % of control | [21] 98 % of control

CCCCCCCCCCCCCCCCCCNC(=O)Nc1ccccc1
inactive: dose: 100.0 mg/kg/injection, schedule: Q01DX009 (ip), vehicle: other 101 % of control | dose: 200.0 mg/kg/injection, schedule: Q01DX009 (ip), vehicle: other 100 % of control | dose: 400.0 mg/kg/injection, schedule: Q01DX009 (ip), vehicle: other 97 % of control

C/C(=N/NC(=S)Nc1cc(I)ccc1C)c1cc(C)ccc1O
inactive: dose: 12.5 mg/kg/injection, schedule: Q04DX002 (ip), vehicle: Klucel (hydroxypropylcellulose) (HPC) 97 % of control | [15] 102 % of control | [16] 94 % of control

COC(=O)CCCCn1ccc(=O)[nH]c1=O
inactive: [17] 100 % of control | dose: 200.0 mg/kg/injection, schedule: Q04DX002 (ip), vehicle: Klucel (hydroxypropylcellulose) (HPC) 104 % of control | dose: 400.0 mg/kg/injection, schedule: Q04DX002 (ip), vehicle: Klucel (hydroxypropylcellulose) (HPC) 100 % of control

C[n+]1cccc(C(=O)N/N=C/CCc2ccccc2)c1
inactive: [2] 95 % of control | dose: 50.0 mg/kg/injection, schedule: Q01DX001 (ip), vehicle: saline with Tween-80 101 % of control | [3] 120 % of control | [4] 90 % of control | dose: 100.0 mg/kg/injection, schedule: Q01DX001 (ip), vehicle: saline with Tween-80 103 % of control | [5] 106 % of control | [6] 92 % of control | dose: 200.0 mg/kg/injection, schedule: Q01DX001 (ip), vehicle: saline with Tween-80 97 % of control | dose: 200.0 mg/kg/injection, schedule: Q01DX009 (ip), vehicle: saline with Tween-80 95 % of control | dose: 200.0 mg/kg/injection, schedule: Q04DX003 (ip), vehicle: saline with Tween-80 94 % of control | dose: 400.0 mg/kg/injection, schedule: Q01DX001 (ip), vehicle: saline with Tween-80 101 % of control

CC(C)=CCC(CCN(C)C)(C(N)=O)c1cccc2ccccc12 (stereo not drawn)
inactive: dose: 5.0 mg/kg/injection, schedule: Q01DX009 (ip), vehicle: Klucel (hydroxypropylcellulose) (HPC) 102 % of control | dose: 5.0 mg/kg/injection, schedule: Q04DX003 (ip), vehicle: Klucel (hydroxypropylcellulose) (HPC) 94 % of control | dose: 10.0 mg/kg/injection, schedule: Q01DX009 (ip), vehicle: Klucel (hydroxypropylcellulose) (HPC) 93 % of control | dose: 10.0 mg/kg/injection, schedule: Q04DX003 (ip), vehicle: Klucel (hydroxypropylcellulose) (HPC) 91 % of control | dose: 20.0 mg/kg/injection, schedule: Q01DX009 (ip), vehicle: Klucel (hydroxypropylcellulose) (HPC) 91 % of control | dose: 20.0 mg/kg/injection, schedule: Q04DX003 (ip), vehicle: Klucel (hydroxypropylcellulose) (HPC) 96 % of control

O=C(N/N=C\c1ccc(Cl)cc1Cl)c1ccc(F)cc1
inactive: [1] 96 % of control | [3] 94 % of control | [5] 92 % of control

NC(=S)N/N=C\c1ccccc1/C=N/NC(N)=S
inactive: dose: 50.0 mg/kg/injection, schedule: Q01DX001 (ip), vehicle: carboxymethylcellulose (CMC) 109 % of control | [13] 98 % of control | [14] 98 % of control | [21] 98 % of control

O=c1cc(-c2ccccc2)cc(-c2ccccc2)o1
inactive: [7] 102 % of control | [10] 96 % of control | [8] 96 % of control | [11] 100 % of control | [9] 96 % of control | [12] 94 % of control

CC(CC(CCC(CC(C)CC(C)(C)C)N(C)C)N(C)C)CC(C)(C)C (stereo not drawn)
inactive: dose: 50.0 mg/kg/injection, schedule: Q01DX009 (ip), vehicle: Klucel (hydroxypropylcellulose) (HPC) 90 % of control | [16] 93 % of control | [7] 96 % of control | [17] 87 % of control | [8] 101 % of control

CCOC(=O)C1CCC(=O)O1 (stereo not drawn)
inactive: [18] 104 % of control | [19] 101 % of control | [20] 97 % of control

CS(=O)(=O)Nc1ccc(C(=O)O)cc1
inactive: [7] 97 % of control | [10] 100 % of control | [8] 98 % of control | [11] 107 % of control | [9] 98 % of control | [12] 105 % of control

COc1cc(C(=O)CCC(=O)O)c(OC)c(CBr)c1CBr
inactive: dose: 5.0 mg/kg/injection, schedule: Q01DX001 (ip), vehicle: other 101 % of control | dose: 10.0 mg/kg/injection, schedule: Q01DX001 (ip), vehicle: other 110 % of control | dose: 20.0 mg/kg/injection, schedule: Q01DX001 (ip), vehicle: other 101 % of control

CCN(C(=O)Nc1ccc(OC)cc1)c1ccccc1C
inactive: [10] 99 % of control | [8] 96 % of control | [11] 96 % of control | [9] 102 % of control | [12] 96 % of control

Source: PubChem BioAssay AID248 (DTP/NCI, 2004)
